Source: patent publication US10996215B2, “Methods for determining drug efficacy for the treatment of diffuse large B-cell lymphoma, multiple myeloma, and myeloid cancers” (CELGENE CORPORATION, priority 2013, dated 2021)

Key:
Aiolos, Ikaros, ZFP91 = assay: CRBN dependence of ZFP91 reduction in U266 cells, Western blot; type: cell-based; settings: 6 hour
Method: U266 cells were transduced with inducible shRNA constructs targeting CRBN or targeting luciferase as control. Cells were grown in the presence or in the absence of 10 ng/ml Doxycycline, and in the presence or in the absence of 1 μM pomalidomide. Cells were harvested and were treated in cell lysis buffer to generate cell lysates. Proteins from cell lysate were separated by gel electrophoresis and transferred to nitrocellulose membranes. Immunoblots were then probed with antibodies recognizing Aiolos, CRBN, Ikaros, ZFP91, IRF4, IFIT1, IFIT3, P-STAT1, and β-actin (Li-Cor).
Cells were harvested, and lysates were run on 10% SDS-PAGE and immunoblotted with the appropriate antibodies.
MG132 activates c-Jun N-terminal kinase (JNK1), which initiates apoptosis. […] MLN4924 is a NAE1 inhibitor that blocks the activity of Cullin Ring Ligases (CRLs), such as CRL4^CRBN. […] Cells were harvested and lysates were run on 10% SDS-PAGE, transferred to nitrocellulose and immunoblotted with the corresponding antibodies.

IFN pathway = assay: effect on IFN pathway (FIG. 13); type: cell-based
CSNK1A1 (CK1α), Ikaros = assay: MG-132, MLN-4924 or Compound A pre-treatment, Western analysis in HNT-34 cells; type: cell-based; settings: 10 μM Compound A 1.5 h, 0.3 μM or less lenalidomide, 3 h or 6 h
Aiolos = assay: Western blot of Aiolos in GCB and ABC cell lines, 24 or 72 hours; type: cell-based; settings: ABC and GCB DLBCL cell lines
Method: Aiolos or β-actin (control) protein levels were analyzed by Western blotting, essentially as described in Section 6.8.

IRF7, IFN response = assay: IFN response, Western blot of IRF7 in U2932 (ABC) cells; type: cell-based
Method: U2932 (ABC) cells were cultured and cell-passaged long-term in Compound A as described in Section 6.10. Levels of Aiolos, IRF7, and β-actin (control) were assessed using Western blotting, essentially as described above in Section 6.8.

[1] = tested on: Aiolos, Ikaros, IRF4, Cereblon; assay: Western blot of Aiolos, Ikaros, IRF4, Cereblon in DLBCL cell lines; type: cell-based, human
Method: Immunoblots were probed with antibodies recognizing: Aiolos, Ikaros, Cereblon, IRF4, c-myc, CD44, EZH2, EBF 1, PU. 1, and β-actin. Signals were detected with a LI-COR imager
The following steps can be performed to harvest cells in preparation for Western Blot analysis. The steps are performed on ice and any centrifugation is performed in a 4° C. refrigerated centrifuge. RIPA lysis buffer (Pierce, cat #89900) is first prepared by adding […] proteinase inhibitors (Pierce, cat #78443) to 1 mL of RIPA buffer. Subsequently, cells are washed once in ice-cold phosphate buffered saline (PBS). The cells are then lysed with 0.25 mL RIPA lysis buffer. The PBMCs are placed on ice for 30 minutes and vortexed every 10 minutes. Lysates are frozen and stored at −80° C. prior to further processing.
Lysates are placed in a QIAshredder® tube (QIAGEN, cat #79656) and spun down 30 sec, top speed (13200 rpm) in an Eppendorf benchtop centrifuge (Model 5415 R). The lysate is then transferred to a 1.5 mL clear Eppendorf tube and spun down 10 min at top speed. The supernatent is collected without disturbing the cell debris pellet. The supernatent is dry ice frozen and stored at −80° C. prior to analysis.
The protein concentration in supernatent is measured using BCA assay and the expected protein yield is about 0.5-5 μg/μL, or 125-1250 μg total. Approximately ≥10 μg protein per lane is loaded for western blotting (IRF4, IKZF3, etc.) using antibodies against the human proteins.
Membranes are immunblotted with anti-Aiolos (Santa Cruz Biotechnology, Dallas, Tex.), anti-Ikaros (Millipore, Billerica, Mass.) and anti-Actin (Sigma, St. Louis, Mo.; or LI-COR Biosciences, Lincoln, Nebr.) and secondary antibodies (LI-COR Biosciences, Lincoln, Nebr.). The blots are analyzed on Odyssey imager (LI-COR Biosciences, Lincoln, Nebr.).

HNT-34 = assay: 4 d BrdU cell assay / tritiated thymidine, sensitivity; type: cell-based; settings: FIG. 22B
Method: (§1) Sensitivity to lenalidomide treatment in a panel of myeloid cancer cell lines was evaluated by tritiated thymidine and/or BrdU assays.

MDS-L = assay: as above; type: cell-based; settings: FIG. 22B
Method: as §1

Question: With Cc1nc2cccc(N)c2c(=O)n1C1CCC(=O)NC1=O (centres unmarked) [Compound A, 3-(5-amino-2-methyl-4-oxo-4H-quinazolin-3-yl)-piperidine-2,6-dione] as the molecule, how does the “destruction of Aiolos, Ikaros, and ZFP91 (CRBN dependent pathway)” value (Aiolos, Ikaros, ZFP91) read?
Answer: induced

Question: And the “IFIT1, IFIT3, DDX58, XAF1, IFIH1, and OAS3 protein expression” value (IFN pathway; FIG. 13A)?
Answer: upregulates

Question: What about the “DDX58, IFI27, IFIT1, IFIT3, DDX58, and XAF1 gene expression” value (IFN pathway; FIG. 13B) of the same molecule?
Answer: upregulates

Question: What about the “ISG15 and OAS3 gene expression” value (IFN pathway; FIG. 13C) of the same molecule?
Answer: upregulates

Question: What about the IRF changes (IFN pathway; FIG. 13E) of the same molecule?
Answer: induces

Question: What about the “IFIT1 and IFIT3 protein expression” value (IFN pathway; FIG. 13F) of the same molecule?
Answer: upregulates

Question: And the IKKE protein level (IFN pathway; FIG. 13F)?
Answer: reduces

Question: And the “TBK1 phosphorylation (TBK1-PO4)” value (IFN pathway; FIG. 13F)?
Answer: upregulates

Question: What about the “levels of STAT or phosphorylated STAT” value (IFN pathway; FIG. 13G) of the same molecule?
Answer: induces changes

Question: And the “lenalidomide induced CSNK1A1 degradation after Compound A pre-treatment” value (CSNK1A1 (CK1α), Ikaros)?
Answer: blocks

Question: What about the Aiolos protein levels (Aiolos) of the same molecule?
Answer: decrease in a dose-dependent manner

Question: What about the “IFN response gene expression” value (IRF7, IFN response; FIG. 10A) of the same molecule?
Answer: up-regulates

Question: And the IRF7 protein expression (IRF7, IFN response; U2932 (ABC), Western blot)?
Answer: upregulates

Question: And the IRF4 levels ([1]; DLBCL cell lines, 1 μM or 10 μM, within 72 hours)?
Answer: reduce

Question: And the Aiolos levels ([1]; Karpas 422 (GCB) and TMD8 (ABC), 10 μM, 1, 6 or 12 hours, vs DMSO)?
Answer: decrease

Question: And the “Aiolos and Ikaros levels” value ([1]; WSU-DLCL2 (GCB) and OCI-LY10 (ABC), 10 μM, 1, 6 or 12 hours, vs DMSO)?
Answer: decreasing

Question: And the CRBN levels ([1]; nine GCB and ABC DLBCL cell lines, 1 μM or 10 μM, 72 hours)?
Answer: remained constant

Question: And the “Aiolos and Ikaros levels” value ([1]; nine GCB and ABC DLBCL cell lines, 1 μM or 10 μM, 72 hours, vs DMSO)?
Answer: decreasing

Question: What about the “sensitivity of HNT-34 cells” value (HNT-34) of the same molecule?
Answer: only MDS-L cells were sensitive to Compound A

Question: And the “sensitivity of MDS-L cells” value (MDS-L)?
Answer: sensitive
